These results are taken from patent US11524938B2, “Aromatic sulfonamide derivatives” (Bayer Pharma Aktiengesellschaft, priority 2016, dated 2022).

Molecules are shown by their SMILES. pIC50: −log10 of the molar value. A value given as a limit tells only on which side of the number the result lay.

Broadly, the pIC50 is the negative decadic logarithm of the IC50, by convention in mol/L.

The test has as its target T1, human P2X4 (Homo sapiens, UniProt Q99571).
T1 sequence (Q99571 1-388): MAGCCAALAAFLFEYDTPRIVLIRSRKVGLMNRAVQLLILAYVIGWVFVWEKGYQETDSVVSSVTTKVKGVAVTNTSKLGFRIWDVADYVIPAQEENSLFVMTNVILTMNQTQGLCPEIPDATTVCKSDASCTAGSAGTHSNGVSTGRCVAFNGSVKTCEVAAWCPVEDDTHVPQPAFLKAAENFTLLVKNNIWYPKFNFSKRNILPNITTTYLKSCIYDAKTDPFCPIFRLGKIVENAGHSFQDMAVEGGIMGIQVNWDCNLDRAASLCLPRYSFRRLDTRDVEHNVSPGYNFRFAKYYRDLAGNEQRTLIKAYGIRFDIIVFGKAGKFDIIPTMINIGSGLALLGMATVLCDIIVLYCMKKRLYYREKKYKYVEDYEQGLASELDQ
Description: Human P2X4 HEK Cell FLIPR Assay. It counts as cell-based. The note with it: agonist Bz-ATP at EC80; for Emax: HEK293, HEK293 cells, percentage of maximal inhibition, read-out: Human P2X4 HEK Cells (FLIPR Assay) avg Efficacy [%]; for pIC50: HEK293 cells, individual values listed where some fall outside detection range. The essentials:
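Calcium flux read by FLIPR for 120 sec after Bz-ATP challenge at EC80 (established each assay day), following 30 min room-temperature compound preincubation in dye-loaded stable human P2X4 HEK293 cells. Peak RFU over basal normalized to agonist control; IC50, maximal inhibition and Hill coefficient from triplicate means.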

As to `Cc1nc(Cl)ncc1-c1ccc(NC(=O)Cc2ccccc2Cl)cc1S(N)(=O)=O` [Example 317, N-[4-(2-Chloro-4-methylpyrimidin-5-yl)-3-sulfamoylphenyl]-2-(2-chlorophenyl)acetamide], the Emax came out at 68% and the pIC50 was 5.92.

In the case of `NS(=O)(=O)c1cc(NC(=O)Cc2ccccc2Cl)ccc1-c1cc(C(F)(F)F)ccn1` [Example 318, 2-(2-Chlorophenyl)-N-{3-sulfamoyl-4-[4-(trifluoromethyl)pyridin-2-yl]phenyl}acetamide], the Emax is 43% and the pIC50 was < 4.60.

As to `NS(=O)(=O)c1cc(NC(=O)Cc2ccccc2Cl)ccc1-c1ccc(Cl)cn1` [Example 319, 2-(2-Chlorophenyl)-N-[4-(5-chloropyridin-2-yl)-3-sulfamoylphenyl]acetamide], the Emax worked out at 73% and the pIC50 is 5.14.

Regarding `Cc1nc(-c2ccc(NC(=O)Cc3ccccc3Cl)cc2S(N)(=O)=O)cn1C` [Example 320, 2-(2-Chlorophenyl)-N-[4-(1,2-dimethyl-1H-imidazol-4-yl)-3-sulfamoylphenyl]acetamide], the Emax is 51% and the pIC50 is < 4.60.

In the case of `NS(=O)(=O)c1cc(NC(=O)Cc2ccccc2Cl)ccc1-c1cncc(N2CCCC2)c1` [Example 322, 2-(2-Chlorophenyl)-N-{4-[5-(pyrrolidin-1-yl)pyridin-3-yl]-3-sulfamoylphenyl}acetamide], the Emax is 81% and the pIC50 is 6.73.

Take `NS(=O)(=O)c1cc(NC(=O)C(O)c2ccccc2Cl)ccc1-c1cnn(C2CC2)c1` (centres unmarked) [Example 323, 2-(2-Chlorophenyl)-N-[4-(1-cyclopropyl-1H-pyrazol-4-yl)-3-sulfamoylphenyl]-2-hydroxyethanamide]: the Emax worked out at 81% and the pIC50 was 5.59.

Regarding `NS(=O)(=O)c1cc(NC(=O)C(O)c2ccccc2Cl)ccc1-c1cnn(C(F)F)c1` (centres unmarked) [Example 324, 2-(2-Chlorophenyl)-N-{4-[1-(difluoromethyl)-1H-pyrazol-4-yl]-3-sulfamoylphenyl}-2-hydroxyethanamide], the Emax is 59% and the pIC50 is 5.52.

Regarding `NS(=O)(=O)c1cc(NC(=O)Cc2ccccc2Cl)ccc1-c1cncc(Cl)c1` [Example 325, 2-(2-Chlorophenyl)-N-[4-(5-chloropyridin-3-yl)-3-sulfamoylphenyl]acetamide], the Emax came out at 94% and the pIC50 is 8.05.

`NS(=O)(=O)c1cc(NC(=O)Cc2ccccc2Cl)ccc1-c1cncc(F)c1` [Example 327, 2-(2-Chlorophenyl)-N-[4-(5-fluoropyridin-3-yl)-3-sulfamoylphenyl]acetamide]: the Emax is 94% and the pIC50 is 7.96.

Consider `CC(C)Cn1cc(-c2ccc(NC(=O)Cc3ccccc3Cl)cc2S(N)(=O)=O)cn1` [Example 328, 2-(2-Chlorophenyl)-N-{4-[1-(2-methylpropyl)-1H-pyrazol-4-yl]-3-sulfamoylphenyl}acetamide], for which the Emax came to 94% and the negative-log IC50 (pIC50) was 7.92.

Consider `NS(=O)(=O)c1cc(NC(=O)Cc2ccccc2Cl)ccc1-c1cnn(C2CCCC2)c1` [Example 329, 2-(2-Chlorophenyl)-N-[4-(1-cyclopentyl-1H-pyrazol-4-yl)-3-sulfamoylphenyl]acetamide], for which the Emax is 100% and the pIC50 was 7.89.

For the molecule `CC(C)Oc1cccc(-c2ccc(NC(=O)Cc3ccccc3Cl)cc2S(N)(=O)=O)c1F` [Example 330, 2-(2-Chlorophenyl)-N-[2′-fluoro-3′-(propan-2-yloxy)-2-sulfamoylbiphenyl-4-yl]-acetamide], the Emax amounted to 101% and the pIC50 was 7.85.

For the molecule `NS(=O)(=O)c1cc(NC(=O)Cc2ccccc2Cl)ccc1-c1cncc(C(F)(F)F)c1` [Example 331, 2-(2-Chlorophenyl)-N-{3-sulfamoyl-4-[5-(trifluoromethyl)pyridin-3-yl]phenyl}-acetamide], the Emax came out at 66%.

Consider `COc1cc(-c2ccc(NC(=O)Cc3ccccc3Cl)cc2S(N)(=O)=O)cnc1Cl` [Example 332, N-[4-(6-Chloro-5-methoxypyridin-3-yl)-3-sulfamoylphenyl]-2-(2-chlorophenyl)-acetamide], for which the Emax amounted to 89% and the pIC50 is 6.49.

`NS(=O)(=O)c1cc(NC(=O)Cc2c(F)cccc2Cl)ccc1-c1cnn(C2CC2)c1` [Example 333, 2-(2-Chloro-6-fluorophenyl)-N-[4-(1-cyclopropyl-1H-pyrazol-4-yl)-3-sulfamoylphenyl]acetamide]: the Emax stood at 101% and the pIC50 was 7.82.

In the case of `Cn1cc(-c2ccc(NC(=O)Cc3cccc(F)c3Cl)cc2S(N)(=O)=O)cn1` [Example 334, 2-(2-Chloro-3-fluorophenyl)-N-[4-(1-methyl-1H-pyrazol-4-yl)-3-sulfamoylphenyl]-acetamide], the Emax was 98% and the pIC50 was 7.74.

Consider `CC(C)(C)n1cc(-c2ccc(NC(=O)Cc3ccccc3Cl)cc2S(N)(=O)=O)cn1` [Example 335, N-[4-(1-tert-Butyl-1H-pyrazol-4-yl)-3-sulfamoylphenyl]-2-(2-chlorophenyl)acetamide], for which the Emax came out at 98% and the pIC50 was 7.70.

Regarding `CC(C)Oc1ncccc1-c1ccc(NC(=O)Cc2ccccc2Cl)cc1S(N)(=O)=O` [Example 336, 2-(2-Chlorophenyl)-N-{4-[2-(propan-2-yloxy)pyridin-3-yl]-3-sulfamoylphenyl}acetamide], the Emax was 109% and the pIC50 was 7.55.

For the molecule `NS(=O)(=O)c1cc(NC(=O)Cc2cccc(F)c2Cl)ccc1-c1cnn(C2CC2)c1` [Example 337, 2-(2-Chloro-3-fluorophenyl)-N-[4-(1-cyclopropyl-1H-pyrazol-4-yl)-3-sulfamoylphenyl]acetamide], the Emax was determined as 96% and the pIC50 was 7.52.

As to `NS(=O)(=O)c1cc(NC(=O)Cc2ccccc2F)ccc1-c1cccnc1` [Example 338, 2-(2-Fluorophenyl)-N-[4-(pyridin-3-yl)-3-sulfamoylphenyl]acetamide], the Emax was determined as 91% and the negative-log IC50 (pIC50) is 7.49.

As for `Cn1cc(-c2ccc(NC(=O)Cc3c(F)cccc3Cl)cc2S(N)(=O)=O)cn1` [Example 339, 2-(2-Chloro-6-fluorophenyl)-N-[4-(1-methyl-1H-pyrazol-4-yl)-3-sulfamoylphenyl]-acetamide], the Emax was 92% and the pIC50 is 7.48.

Turning to `CC(C)(O)c1cc(F)cc(-c2ccc(NC(=O)Cc3ccccc3Cl)cc2S(N)(=O)=O)c1` [Example 340, 2-(2-Chlorophenyl)-N-[3′-fluoro-5′-(2-hydroxypropan-2-yl)-2-sulfamoylbiphenyl-4-yl]acetamide], the Emax turned out to be 89% and the negative logarithm of the IC50 (pIC50) was 7.47.

With `COc1cncc(-c2ccc(NC(=O)Cc3ccccc3Cl)cc2S(N)(=O)=O)c1` [Example 341, 2-(2-Chlorophenyl)-N-[4-(5-methoxypyridin-3-yl)-3-sulfamoylphenyl]acetamide], the Emax worked out at 86% and the pIC50 is 7.39.

In the case of `CC(C)(O)c1cccc(-c2ccc(NC(=O)Cc3ccccc3Cl)cc2S(N)(=O)=O)c1` [Example 342, 2-(2-Chlorophenyl)-N-[3′-(2-hydroxypropan-2-yl)-2-sulfamoylbiphenyl-4-yl]acetamide], the Emax came to 101% and the pIC50 was 7.39.

For `CC(C)n1cc(-c2ccc(NC(=O)Cc3ccccc3F)cc2S(N)(=O)=O)cn1` [Example 343, 2-(2-Fluorophenyl)-N-{4-[1-(propan-2-yl)-1H-pyrazol-4-yl]-3-sulfamoylphenyl}-acetamide], the Emax stood at 101% and the pIC50 was 7.38.

As for `NS(=O)(=O)c1cc(NC(=O)Cc2ccccc2F)ccc1-c1cnn(C2CC2)c1` [Example 344, N-[4-(1-Cyclopropyl-1H-pyrazol-4-yl)-3-sulfamoylphenyl]-2-(2-fluorophenyl)-acetamide], the Emax is 102% and the pIC50 is 7.36.

As to `NS(=O)(=O)c1cc(NC(=O)Cc2ccccc2Cl)ccc1-c1cnn(C2CCCCO2)c1` (centres unmarked) [Example 345, 2-(2-Chlorophenyl)-N-{3-sulfamoyl-4-[1-(tetrahydro-2H-pyran-2-yl)-1H-pyrazol-4-yl]phenyl}acetamide], the Emax was determined as 93% and the pIC50 is 7.34.

As to `CC(C)(C)n1cc(-c2ccc(NC(=O)Cc3ccccc3F)cc2S(N)(=O)=O)cn1` [Example 346, N-[4-(1-tert-Butyl-1H-pyrazol-4-yl)-3-sulfamoylphenyl]-2-(2-fluorophenyl)acetamide], the Emax was 105% and the pIC50 was 7.34.

On to `CC(C)(O)c1cc(F)cc(-c2ccc(NC(=O)Cc3ccccc3F)cc2S(N)(=O)=O)c1` [Example 347, N-[3′-Fluoro-5′-(2-hydroxypropan-2-yl)-2-sulfamoylbiphenyl-4-yl]-2-(2-fluorophenyl)acetamide], for which the Emax was 89% and the pIC50 was 7.07.

Turning to `NS(=O)(=O)c1cc(NC(=O)Cc2ccccc2F)ccc1-c1cnn(C2CCCC2)c1` [Example 348, N-[4-(1-Cyclopentyl-1H-pyrazol-4-yl)-3-sulfamoylphenyl]-2-(2-fluorophenyl)-acetamide], the Emax stood at 96% and the pIC50 was 7.33.
